Measurements taken from patent US12252524B2, “GIP/GLP1 co-agonist compounds” (Eli Lilly and Company, priority 2018, dated 2025).
Numbered stars: 1 amine (or outer) side, 2 acyl side, 3 side chain; on linkers, the order of the positions; unused ones are H or OH. Square brackets hold non-standard residues; d marks the D form. Side chains are listed from the residue outwards. Peptide text beside a SMILES is read from it. * marks the point of attachment. C20 diacid = O=C(O)CCCCCCCCCCCCCCCCCCC(=O)*; C18 diacid = O=C(O)CCCCCCCCCCCCCCCCC(=O)*; αMePhe(2-F) = C[C@](N)(Cc1ccccc1F)C(=O)O; γGlu = O=C(O)[C@H](CCC(=O)[*:2])N[*:1]; αMeL = CC(C)C[C@](C)(N)C(=O)O; Dab = NCC[C@H](N)C(=O)O; Dap = NC[C@H](N)C(=O)O; AEEA = NCCOCCOCC(=O)O; Aib = CC(C)(N)C(=O)O

Assays:
human GIP receptor = biological target: T1, human GIP receptor (Homo sapiens, UniProt P48546); assay: [125I]-GIP binding (SPA), human GIP receptor; details: read-out: hGIPR Ki, nM (SEM, n)
T1 construct: expressed in transfected cells; crude membranes
T1 sequence (P48546 22-466): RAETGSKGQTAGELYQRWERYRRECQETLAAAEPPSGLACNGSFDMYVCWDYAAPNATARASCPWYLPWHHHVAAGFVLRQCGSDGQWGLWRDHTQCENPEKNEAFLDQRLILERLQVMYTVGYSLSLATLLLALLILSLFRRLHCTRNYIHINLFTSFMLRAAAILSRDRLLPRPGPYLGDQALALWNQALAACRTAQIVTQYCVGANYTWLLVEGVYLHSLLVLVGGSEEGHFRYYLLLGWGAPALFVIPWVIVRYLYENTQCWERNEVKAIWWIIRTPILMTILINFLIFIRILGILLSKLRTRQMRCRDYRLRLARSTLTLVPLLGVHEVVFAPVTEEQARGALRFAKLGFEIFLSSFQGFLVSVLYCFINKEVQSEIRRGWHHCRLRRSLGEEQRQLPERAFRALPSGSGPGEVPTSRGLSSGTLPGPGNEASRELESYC

[1] = biological target: T2, gastric inhibitory peptide receptor (GIPR) (Homo sapiens, UniProt P48546); assay: cAMP pharmacological functional assay in presence of casein, hGIPR; assay type: cell-based; details: HEK293 cells expressing hGIPR, 0.1% Casein, geometric mean; read-out: hGIPR cAMP Rel EC50 nM (SEM, n)
T2 sequence (P48546 22-466): T1 sequence (P48546 22-466)

human Gcg receptor = biological target: T3, human Gcg receptor (Homo sapiens, UniProt P47871); assay: [125I]-Glucagon binding (SPA), human Gcg receptor; details: read-out: hGLcgR Ki, nM (SEM, n)
T3 construct: expressed in transfected cells; crude membranes
T3 sequence (P47871 26-477): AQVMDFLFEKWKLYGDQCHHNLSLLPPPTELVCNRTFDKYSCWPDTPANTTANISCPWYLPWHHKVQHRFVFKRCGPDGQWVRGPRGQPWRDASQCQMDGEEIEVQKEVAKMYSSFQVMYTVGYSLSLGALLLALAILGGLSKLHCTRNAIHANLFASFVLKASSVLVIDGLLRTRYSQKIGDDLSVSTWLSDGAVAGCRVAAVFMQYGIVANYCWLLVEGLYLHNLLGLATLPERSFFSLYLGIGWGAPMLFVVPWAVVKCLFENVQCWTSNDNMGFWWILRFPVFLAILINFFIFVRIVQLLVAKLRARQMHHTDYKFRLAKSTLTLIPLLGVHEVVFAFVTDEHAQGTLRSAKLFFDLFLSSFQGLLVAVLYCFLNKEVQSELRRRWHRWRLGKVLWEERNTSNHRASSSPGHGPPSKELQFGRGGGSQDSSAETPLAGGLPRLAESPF
Procedure, shortened: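 Scintillation counts are taken after membranes and WGA beads incubate and settle for 12 hours at room temperature. Buffer is 25 mM HEPES, pH 7.4, with CaCl2, MgCl2, bacitracin and Tween-20. Ki values, from four-parameter IC50 fits, are geometric means over independent days.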

[2] = biological target: human GLP-1 receptor (GLP-1R) (Homo sapiens, UniProt P43220); assay: cAMP pharmacological functional assay in presence of casein, hGLP-1R; assay type: cell-based; details: HEK293 cells expressing hGLP-1R, 0.1% Casein, geometric mean; read-out: hGLP1R cAMP Rel EC50 nM (SEM, n)
Sequence of human GLP-1 receptor (GLP-1R) (P43220 24-463): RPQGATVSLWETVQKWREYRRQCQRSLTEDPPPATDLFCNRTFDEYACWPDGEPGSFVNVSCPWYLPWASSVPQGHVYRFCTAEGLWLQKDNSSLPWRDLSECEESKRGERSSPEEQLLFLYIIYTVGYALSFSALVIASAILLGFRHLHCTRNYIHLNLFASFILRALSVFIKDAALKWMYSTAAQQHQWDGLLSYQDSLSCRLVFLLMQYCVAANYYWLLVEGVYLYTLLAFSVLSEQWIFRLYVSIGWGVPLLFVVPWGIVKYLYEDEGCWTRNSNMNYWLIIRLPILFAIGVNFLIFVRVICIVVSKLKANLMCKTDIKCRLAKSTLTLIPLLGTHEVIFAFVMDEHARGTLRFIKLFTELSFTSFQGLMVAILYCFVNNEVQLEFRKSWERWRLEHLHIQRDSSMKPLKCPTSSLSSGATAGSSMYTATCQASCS

human GLP-1R = human GLP-1R (Homo sapiens, UniProt P43220); assay: [125I]-GLP-1 binding (SPA), human GLP-1 receptor; set-up: expressed in transfected cells; crude membranes; details: read-out: hGLP1R Ki, (nM) (SEM, n)
Sequence of human GLP-1R (P43220 24-463): as above
Procedure, shortened: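 Frozen cell pellets are lysed on ice in hypotonic Tris buffer, pH 7.5, homogenized, and centrifuged to a membrane pellet resuspended at about 1 to 3 mg/mL. Binding is then measured in HEPES-based buffer at pH 7.4, and curves are fitted to give IC50 and Ki.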

Structure (SMILES) | Ki (human GIP receptor) [nM] | EC50 [1] [nM] | Ki (human Gcg receptor) [nM] | EC50 [2] [nM] | Ki (human GLP-1R) [nM]
CC[C@H](C)[C@H](NC(=O)[C@H](CC(C)C)NC(=O)[C@H](Cc1ccc(O)cc1)NC(=O)[C@@H](CCC(=O)O)NC(=O)[C@@H](NC(=O)[C@H](Cc1ccccc1)NC(=O)[C@H](CCC(=O)O)NC(=O)C(C)(C)NC(=O)[C@H](CCC(N)=O)NC(=O)[C@H](C)NC(=O)[C@H](CCCCNC(=O)COCCOCCNC(=O)COCCOCCNC(=O)CCCCCCCCCCCCCCCCCCC(=O)O)NC(=O)[C@H](CCC(=O)O)NC(=O)[C@H](CC(=O)O)NC(=O)[C@H](CC(C)C)NC(=O)[C@](C)(CC(C)C)NC(=O)[C@@H](NC(=O)[C@H](CO)NC(=O)[C@H](Cc1ccc(O)cc1)NC(=O)[C@H](CC(=O)O)NC(=O)[C@H](CO)NC(=O)[C@@H](NC(=O)[C@](C)(Cc1ccccc1F)NC(=O)[C@@H](NC(=O)CNC(=O)[C@H](CCC(=O)O)NC(=O)C(C)(C)NC(=O)[C@@H](N)Cc1ccc(O)cc1)[C@@H](C)O)[C@@H](C)O)[C@@H](C)CC)[C@@H](C)CC)C(=O)N[C@@H](CCC(=O)O)C(=O)NCC(=O)NCC(=O)N1CCC[C@H]1C(=O)N[C@@H](CO)C(=O)N[C@@H](CO)C(=O)NCC(=O)N[C@@H](C)C(=O)N1CCC[C@H]1C(=O)N1CCC[C@H]1C(=O)N1CCC[C@H]1C(=O)N[C@@H](CO)C(N)=O [Example 215] (H-Y[Aib]EGT[αMePhe(2-F)]TSDYSI[αMeL]LDEK([AEEA-AEEA-C20 diacid])AQ[Aib]EFI[dE]YLIEGGPSSGAPPPS-NH2) | 0.0666 | 0.0525 | 75.2 | 0.0529 | 6.85
CC[C@H](C)[C@H](NC(=O)[C@H](CC(C)C)NC(=O)[C@H](Cc1ccc(O)cc1)NC(=O)[C@@H](CCC(=O)O)NC(=O)[C@@H](NC(=O)[C@H](Cc1ccccc1)NC(=O)[C@H](CCC(=O)O)NC(=O)C(C)(C)NC(=O)[C@H](CCC(N)=O)NC(=O)[C@H](C)NC(=O)[C@H](CCCCNC(=O)COCCOCCNC(=O)COCCOCCNC(=O)[C@@H](N)CCCCNC(=O)CCCCCCCCCCCCCCCCCCC(=O)O)NC(=O)[C@H](CCC(=O)O)NC(=O)[C@H](CC(=O)O)NC(=O)[C@H](CC(C)C)NC(=O)C(C)(CC(C)C)NC(=O)[C@@H](NC(=O)[C@H](CO)NC(=O)[C@H](Cc1ccc(O)cc1)NC(=O)[C@H](CC(=O)O)NC(=O)[C@H](CO)NC(=O)[C@@H](NC(=O)C(C)(Cc1ccccc1F)NC(=O)[C@@H](NC(=O)CNC(=O)[C@H](CCC(=O)O)NC(=O)C(C)(C)NC(=O)[C@@H](N)Cc1ccc(O)cc1)[C@@H](C)O)[C@@H](C)O)[C@@H](C)CC)[C@@H](C)CC)C(=O)N[C@@H](CCC(=O)O)C(=O)NCC(=O)NCC(=O)N1CCC[C@H]1C(=O)N[C@@H](CO)C(=O)N[C@@H](CO)C(=O)NCC(=O)N[C@@H](C)C(=O)N1CCC[C@H]1C(=O)N1CCC[C@H]1C(=O)N1CCC[C@H]1C(=O)N[C@@H](CO)C(N)=O (stereo partly shown) [Example 216] | 0.0559 | 0.0401 | 45.2 | 0.0327 | 2.34
CC[C@H](C)[C@H](NC(=O)[C@H](CC(C)C)NC(=O)[C@H](Cc1ccc(O)cc1)NC(=O)[C@@H](CCC(=O)O)NC(=O)[C@@H](NC(=O)[C@H](Cc1ccccc1)NC(=O)[C@H](CCC(=O)O)NC(=O)C(C)(C)NC(=O)[C@H](CCC(N)=O)NC(=O)[C@H](C)NC(=O)[C@H](CCCCNC(=O)COCCOCCNC(=O)COCCOCCNC(=O)CC[C@H](NC(=O)CCCCCCCCCCCCCCCCCCC(=O)O)C(=O)O)NC(=O)[C@H](CCN)NC(=O)[C@H](CC(=O)O)NC(=O)[C@H](CC(C)C)NC(=O)[C@](C)(CC(C)C)NC(=O)[C@@H](NC(=O)[C@H](CO)NC(=O)[C@H](Cc1ccc(O)cc1)NC(=O)[C@H](CC(=O)O)NC(=O)[C@H](CO)NC(=O)[C@@H](NC(=O)[C@](C)(Cc1ccccc1F)NC(=O)[C@@H](NC(=O)CNC(=O)[C@H](CCC(=O)O)NC(=O)C(C)(C)NC(=O)[C@@H](N)Cc1ccc(O)cc1)[C@@H](C)O)[C@@H](C)O)[C@@H](C)CC)[C@@H](C)CC)C(=O)N[C@@H](CCC(=O)O)C(=O)NCC(=O)NCC(=O)N1CCC[C@H]1C(=O)N[C@@H](CO)C(=O)N[C@@H](CO)C(=O)NCC(=O)N[C@@H](C)C(=O)N1CCC[C@H]1C(=O)N1CCC[C@H]1C(=O)N1CCC[C@H]1C(=O)N[C@@H](CO)C(N)=O [Example 217] (H-Y[Aib]EGT[αMePhe(2-F)]TSDYSI[αMeL]LD[Dab]K([AEEA-AEEA-γGlu-C20 diacid])AQ[Aib]EFI[dE]YLIEGGPSSGAPPPS-NH2) | 0.0376 | 0.0563 | 516 | 0.0383 | 2.02
CC[C@H](C)[C@H](NC(=O)[C@H](CC(C)C)NC(=O)[C@H](Cc1ccc(O)cc1)NC(=O)[C@@H](CCC(=O)O)NC(=O)[C@@H](NC(=O)[C@H](Cc1ccccc1)NC(=O)[C@H](CCC(=O)O)NC(=O)C(C)(C)NC(=O)[C@H](CCC(N)=O)NC(=O)[C@H](C)NC(=O)[C@H](CCCCNC(=O)COCCOCCNC(=O)COCCOCCNC(=O)CC[C@H](NC(=O)CCCCCCCCCCCCCCCCCCC(=O)O)C(=O)O)NC(=O)[C@H](CN)NC(=O)[C@H](CC(=O)O)NC(=O)[C@H](CC(C)C)NC(=O)[C@](C)(CC(C)C)NC(=O)[C@@H](NC(=O)[C@H](CO)NC(=O)[C@H](Cc1ccc(O)cc1)NC(=O)[C@H](CC(=O)O)NC(=O)[C@H](CO)NC(=O)[C@@H](NC(=O)[C@](C)(Cc1ccccc1F)NC(=O)[C@@H](NC(=O)CNC(=O)[C@H](CCC(=O)O)NC(=O)C(C)(C)NC(=O)[C@@H](N)Cc1ccc(O)cc1)[C@@H](C)O)[C@@H](C)O)[C@@H](C)CC)[C@@H](C)CC)C(=O)N[C@@H](CCC(=O)O)C(=O)NCC(=O)NCC(=O)N1CCC[C@H]1C(=O)N[C@@H](CO)C(=O)N[C@@H](CO)C(=O)NCC(=O)N[C@@H](C)C(=O)N1CCC[C@H]1C(=O)N1CCC[C@H]1C(=O)N1CCC[C@H]1C(=O)N[C@@H](CO)C(N)=O [Example 218] (H-Y[Aib]EGT[αMePhe(2-F)]TSDYSI[αMeL]LD[Dap]K([AEEA-AEEA-γGlu-C20 diacid])AQ[Aib]EFI[dE]YLIEGGPSSGAPPPS-NH2) | 0.0593 | 0.0413 | 270 | 0.0423 | 2.54
CC[C@H](C)[C@H](NC(=O)[C@H](CC(C)C)NC(=O)[C@H](Cc1ccc(O)cc1)NC(=O)[C@@H](CCC(=O)O)NC(=O)[C@@H](NC(=O)[C@H](Cc1ccccc1)NC(=O)[C@H](CCC(=O)O)NC(=O)C(C)(C)NC(=O)[C@H](CCC(N)=O)NC(=O)[C@H](C)NC(=O)[C@H](CCCCNC(=O)COCCOCCNC(=O)COCCOCCNC(=O)CC[C@H](NC(=O)CCCCCCCCCCCCCCCCC(=O)O)C(=O)O)NC(=O)[C@H](CCC(=O)O)NC(=O)[C@H](CC(=O)O)NC(=O)[C@H](CC(C)C)NC(=O)[C@](C)(CC(C)C)NC(=O)[C@@H](NC(=O)[C@H](CO)NC(=O)[C@H](Cc1ccc(O)cc1)NC(=O)[C@H](CC(=O)O)NC(=O)[C@H](CO)NC(=O)[C@@H](NC(=O)[C@](C)(Cc1ccccc1F)NC(=O)[C@@H](NC(=O)CNC(=O)[C@H](CCC(=O)O)NC(=O)C(C)(C)NC(=O)[C@@H](N)Cc1ccc(O)cc1)[C@@H](C)O)[C@@H](C)O)[C@@H](C)CC)[C@@H](C)CC)C(=O)N[C@@H](CCC(=O)O)C(=O)NCC(=O)NCC(=O)N1CCC[C@H]1C(=O)N[C@@H](CO)C(=O)N[C@@H](CO)C(=O)NCC(N)=O [Example 219] (H-Y[Aib]EGT[αMePhe(2-F)]TSDYSI[αMeL]LDEK([AEEA-AEEA-γGlu-C18 diacid])AQ[Aib]EFI[dE]YLIEGGPSSG-NH2) | 0.0689 | 0.0341 | 373 | 0.0403 | 2.01
